Reference: patent publication US20250161283A1, “USE OF INDAZOLE COMPOUND FOR TREATING PSORIASIS” (WUHAN CREATERNA SCIENCE AND TECHNOLOGY CO., LTD., priority 2022, published 2025)

Test system: BALB/c mice
Test: IMQ (imiquimod) cream-induced psoriasis mouse model
Type: in vivo
Conditions: male BALB/c mice, 15 mg/kg intragastric, twice daily
Description: BALB/c mice, male, 8 weeks old, SPF grade, provided by Shanghai Lingchang Biotechnology Co., Ltd.
In the drawings: • Group 1 Vaseline-Topical Vehicle P.O indicates a normal control group (vehicle group). • Group 2 IMQ+Vehicle P.O indicates a model control group (vehicle group). • Group 3 IMQ+Dex-Topical indicates a positive control group (dexamethasone). • Group 4 IMQ+A 15 mg/kg P.O indicates a compound group (A, 15 mg/kg, intragastric administration). • Group 5 IMQ+B 15 mg/kg P.O indicates a compound group (B, 15 mg/kg, intragastric administration).
First, 50 mice were randomly divided into 5 groups based on body weight: compound group 1—normal control group (vehicle group); compound group 2—model control group (vehicle group); compound group 3—positive control group (dexamethasone); compound group 4 (compound A, 15 mg/kg, intragastrically administered); compound group 5 (compound B, 15 mg/kg, intragastrically administered). On day 0 of the experiment, the dorsal hair of mice in each group was shaved, removing approximately 2 cm*3 cm area of hair. From day 1 to day 7 of the experiment, except for the normal control group, each mouse received an application of 62.5 mg of 5% IMQ cream on the shaved dorsal area and 20.0 mg of 5% IMQ cream on both sides of the right ear. The normal control group received an application of Vaseline. From day 1 to day 8 of the experiment, two hours before IMQ cream stimulation, the above groups were treated with corresponding drugs. The mice were weighed and shaved prior to administration, which was recorded as day 0. The mice were administered drugs from day 1 to day 8, twice daily.
• 1.5.1. Body weight and rate of change: The body weight was recorded, and the rate of change in body weight was calculated. The results are shown in FIG. 1 (presented as Mean±SEM, where *P<0.05, **P<0.01, ***P<0.001, V.S. model control group, Two-way ANOVA, Bonferroni posttests, n=10). • 1.5.2. Right ear thickness measurement: The thickness of the right ear of animals in each group was measured and recorded using a micrometer. The results are shown in FIG. 2 (Note: data presented as Mean±SEM, where *P<0.05, **P<0.01, ***P<0.001, V.S. model control group, Two-way ANOVA, Bonferroni posttests, n=10; data presented as Mean±SEM, where #P<0.5, ##P<0.01, ###P<0.001, V.S. Group 4, Two-way ANOVA, Bonferroni posttests, n=10) • 1.5.3. Dorsal skin scoring: On days 1, 3, 5, and 7, a representative photograph was taken for each group, and clinical scoring of the dorsal skin was performed. The clinical scoring criteria are shown in Table 1, and the results are shown in FIG. 3 (data presented as Mean±SEM, where *P<0.05, **P<0.01, ***P<0.001, V.S. model control group, Two-way ANOVA, Bonferroni posttests, n=10; data presented as Mean±SEM, where #P<0.5, ##P<0.01, ###P<0.001, V.S. Group 4, Two-way ANOVA, Bonferroni posttests, n=10).
• 1.5.4. Spleen weight: On day 8, mice in each group were euthanized by CO2 inhalation, and the spleens were rapidly excised. Right ear and dorsal skin samples were also collected. One-third of the dorsal skin, spleen, and right ear tissues were fixed in 10% neutral formalin fixative for preparation of paraffin sections and HE staining. Another one-third of the dorsal skin was snap-frozen in liquid nitrogen for ELISA analysis. The remaining one-third of the dorsal skin was snap-frozen in liquid nitrogen and stored in a −80° C. freezer for future use. The results are shown in FIG. 4 (Note: data presented as Mean±SEM, where *P<0.05, **P<0.01, ***P<0.001, V.S. model control group, One-way ANOVA, Bonferroni posttests, n=10; data presented as Mean±SEM, where #P<0.5, ##P<0.01, ###P<0.001, V.S. Group 4, One-way ANOVA, Bonferroni posttests, n=10). • 1.5.5. Dorsal skin pathology scoring: Dorsal skin tissue samples were collected from mice and fixed in 10% neutral formalin fixative for 48 hours. The tissues were then degreased in 75% ethanol for 72 hours, with daily medium changes. […]

**Q.** COc1cc2nn([C@H]3CC[C@](C)(O)CC3)cc2cc1NC(=O)c1cccc(C)[n+]1[O-] [Compound B, 2-((2-(trans-4-hydroxy-cis-4-methylcyclohexyl)-6-methoxy-2H-indazol-5-yl)carbamoyl)-6-methylpyridine 1-oxide] was tested. Which “disease symptoms in the keratin, epidermis, and dermis of the dorsal skin” value (HE staining of dorsal skin, compared to model control group) did it give?
**A.** alleviation

**Q.** And the “dorsal skin pathological scores” value (HE staining of dorsal skin, compared to model control group, FIG. 5)?
**A.** significant reduction

**Q.** And the psoriasis symptoms (compared to model control group)?
**A.** significant reduction

**Q.** What about the “weight loss (body weight and rate of change)” value (day 1 to day 8, compared to model control group, FIG. 1) of the same molecule?
**A.** significantly inhibited

**Q.** And the “increase in right ear thickness” value (day 1 to day 8, compared to model control group, FIG. 2)?
**A.** significantly inhibited

**Q.** What about the “PASI clinical scores (dorsal skin: erythema, crusting, skin thickness, score 0-4)” value (scored on days 1, 3, 5, 7, compared to model control group, FIG. 3) of the same molecule?
**A.** significant reduction

**Q.** What about the “increase in spleen weight (spleen enlargement)” value (spleen excised on day 8, compared to model control group, FIG. 4) of the same molecule?
**A.** significantly inhibited
